Measurements published in patent US5817669A, “Compounds, processes for the preparation thereof and anti-tumor agents” (Dainippon Pharmaceutical Co., Ltd., priority 1994, dated 1998).
Like-named read-outs stand apart in the source and are kept apart here.

Key:
[1] = test system: murine P388 lymphocytic leukemia cells; experiment: In vitro anti-tumor activity against murine P388 lymphocytic leukemia cells (MTT, 72 h); type: cell-based; settings: Mus musculus; murine P388 cells, 72 h, MTT; read-out: IC50 (50% proliferation inhibitory concentration)
Procedure, shortened: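 MTT assay, 72 h exposure; formazan dissolved in DMSO after centrifugation and supernatant removal. Absorbance read at 570 nm with 690 nm reference. IC50 (μg/ml) by least squares.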

[2] = test system: KB human nasopharynx cancer; experiment: In vitro anti-tumor activity against KB human nasopharynx cancer (MTT); type: cell-based; settings: KB, 72 h, MTT, read-out: IC50
Procedure, shortened: (§1)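 500–2,000 cells per well were pre-cultured 20 h at 37° C, 5% CO2, then exposed to test compound for 72 h. MTT (5 mg/ml) was added for 4 h, supernatant removed and formazan dissolved in DMSO.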

HMV2 human melanoma = experiment: In vitro anti-tumor activity against HMV-2 human melanoma (MTT); type: cell-based; settings: HMV-2, 72 h, MTT, read-out: IC50
Procedure, shortened: as §1

[3] = test system: AZ521 human stomach cancer; experiment: In vitro anti-tumor activity against AZ-521 human stomach cancer (MTT); type: cell-based; settings: AZ-521, 72 h, MTT, read-out: IC50
Procedure, shortened: as §1

[4] = test system: MKN45 human stomach cancer; experiment: In vitro anti-tumor activity against MKN45 human stomach cancer (MTT); type: cell-based; settings: MKN-45, MKN45, 72 h, MTT, read-out: IC50
Procedure, shortened: as §1

[5] = test system: WiDr human colorectal cancer; experiment: In vitro anti-tumor activity against WiDr human colorectal cancer (MTT); type: cell-based; settings: 72 h, MTT, read-out: IC50
Procedure, shortened: as §1

C33A human cervix cancer = experiment: In vitro anti-tumor activity against C-33A human cervix cancer (MTT); type: cell-based; settings: C-33A, 72 h, MTT, read-out: IC50
Procedure, shortened: as §1

A427 human lung cancer = experiment: In vitro anti-tumor activity against A-427 human lung cancer (MTT); type: cell-based; settings: A-427, 72 h, MTT, read-out: IC50
Procedure, shortened: as §1

[6] = test system: murine P388 lymphocytic leukemia cells; experiment: Increases in life span of mice implanted with murine P388 lymphocytic leukemia cells; type: in vivo, SLC: BDF1 mice; settings: Mus musculus, P388, ip, 720 h, ip
[7] = test system: colon 26 murine tumor cells; experiment: Tumor growth inhibition effect on colon 26 murine tumor cells implanted mice; type: in vivo, SLC: CDF1 mice; settings: Mus musculus, Colon 26, 504 h; ip, 1.56 mg/kg once a day, days 1-9; day 21 or 22; read-out: Tumor growth inhibition rate IR (%)
Procedure, shortened: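 CDF1 female mice (7–9 weeks, 7 per group) implanted intracutaneously in the abdomen with 2% brei of colon 26 cells. Compound given ip once daily from day 1 to day 9. Tumor weight estimated from diameters on day 21 or 22; IR % = [1 − (treated MTW/control MTW)] × 100.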

Acute toxicity = settings: mouse, in vivo; Intraperitoneal administration (ip), mice, 14th day
Method: Solutions of test compounds in predetermined concentrations were administered (0.1 ml/10 g body weight) to female BALB/c CrSlc mice (5 to 10 animals per one group, 10 weeks old) respectively, and, thus, LD50 values were calculated from the mortalities of the mice on the 14th day after the administration.

[8] = NCI criterion, read-out: Evaluation
[9] = days 1 and 5, in solution, read-out: ILS (%) (in solution)
[10] = days 1 and 5, in suspension, read-out: ILS (%) (in suspension)

Compound: CN[C@@H]1CN(c2ccc3c(=O)c(C(=O)O)cn(-c4nccs4)c3n2)C[C@H]1OC.Cl (relative stereo) [Compound 1-1, 1,4-dihydro-7-(trans-3-methoxy-4-methylamino-1-pyrrolidinyl)-4-oxo-1-(2-thiazolyl)-1,8-naphthyridine-3-carboxylic acid hydrochloride]
- IC50 [1]: 0.0107 µg/mL
- IC50 [2]: 0.11 µg/mL
- IC50 (HMV2 human melanoma): 0.131 µg/mL
- IC50 [3]: 0.0561 µg/mL
- IC50 [4]: 0.15 µg/mL
- IC50 [5]: 0.379 µg/mL
- IC50 (C33A human cervix cancer): 0.137 µg/mL
- IC50 (A427 human lung cancer): 0.0871 µg/mL
- ILS at 0.78 mg/kg [6, 8]: 20 to 74%
- ILS at 1.56 mg/kg [6, 8]: 20 to 74%
- ILS at 3.13 mg/kg [6, 8]: > 75%
- ILS at 6.25 mg/kg [6, 8]: > 75%
- ILS at 12.5 mg/kg [6, 8]: > 75%
- ILS at 25 mg/kg [6, 8]: > 75%
- ILS at 50 mg/kg [6, 8]: > 75%
- ILS at 0.78 mg/kg [6, 9]: 50%
- ILS at 1.56 mg/kg [6, 9]: 63%
- ILS at 3.13 mg/kg [6, 9]: 100%
- ILS at 3.13 mg/kg [6, 10]: 88%
- ILS at 6.25 mg/kg [6, 9]: 125%
- ILS at 12.5 mg/kg [6, 9]: 150%
- ILS at 12.5 mg/kg [6, 10]: 175%
- ILS at 25 mg/kg [6, 9]: 200%
- ILS at 50 mg/kg [6, 9]: > 275%
- inhibition in vivo at 1.56 mg/kg [7]: 86%
- LD50 at 336 h (Acute toxicity): 93.2 mg/kg
- solubility (physchem; 0.1 m phosphate buffer, pH 7.2, aqueous buffer): 20.1 mg/mL
- solubility (physchem; water): 2.9 mg/mL
